In EP4781984A1 (Beyang Therapeutics Co., Ltd., priority 2023, dated 2025) one finds solubility and fraction unbound data, which are given here for 18 compounds.

Converted amounts (≈) assume the structure as drawn.

Data set [1] is described as follows: Thermodynamic solubility test. The following applies: buffer solution, aqueous buffer, thermodynamic from solid; thermodynamic solubility, room temperature, 8 hours shaking; buffers pH 2.0, 6.5, 7.4 used, pH of the tabulated value not given. The format is physicochemical. Here is the method:
Solubility Test of Compounds
Table 9. Reagents and Instruments
After sonication for 10 minutes, they were fixed on a shaker and shaken at room temperature for 8 hours. After shaking, they were sonicated for 10 minutes and centrifuged at 13000 rpm for 15 minutes. 0.1 mL of supernatant was aspirated into a new tube, rinsed with 5 mL of buffer by shaking, and the liquid was discarded. 0.5 mL of supernatant was transferred again to a new tube, centrifuged at 13000 rpm for 15 minutes, and the supernatant was taken (diluted with water if necessary) for LC-MS injection analysis. Sample concentrations were quantified using a 3-5 point calibration curve.

Data set [2] relates to melanin. The data set can be described thus: Compound binding to melanin. The data set is classed as in vitro ADME. Particulars: cuttlefish (Sepia officinalis), melanin suspension (1 mg/mL), percentage of free drug (not bound to melanin), 2 µM compound, melanin 1 mg/mL in PBS pH 7.4, 37°C. From the text: Detection of Compound Binding to Melanin
Pigmented ocular tissues contain melanin within intracellular melanosomes. Drugs bind to melanin to varying degrees, from no binding to extensive binding. Therefore, melanin binding is an important characteristic affecting ocular drug delivery and biodistribution. The ability of compounds to bind to melanin must be considered in ocular drug development.
Melanin derived from cuttlefish (Sepia officinalis) melanin was purchased from Sigma Aldrich (St Louis, MO).
First, prepare a 1 mg/mL melanin suspension in PBS (pH 7.4). As a matrix washing step, suspended particles were centrifuged at 3000 rpm for 5 minutes. The resulting pellet was resuspended in fresh PBS buffer, heated to 37°C with continuous shaking, and incubated for 1 hour. Accurately pipette 2 microliters of test compound stock solution (0.1 mM) into 98 microliters of melanin suspension (1 mg/mL), resulting in a final incubation concentration of 2 µM. Similarly, accurately pipette 2 microliters of stock solution (0.1 mM) into 98 microliters of PBS buffer (containing 0.1% BSA) as a blank control sample. Samples were incubated at 37°C for 2 hours on a shaker (80-90 rpm). Then centrifuged at room temperature. 50 microliters of supernatant was aspirated and added to 50 microliters of precipitation agent (containing internal standard). All samples above were subjected to protein precipitation, centrifuged, the supernatant was taken, diluted with water (if necessary), and then injected for analysis. Simultaneously, high-binding compounds Sunitinib and chloroquine, and the low-binding compound celecoxib were measured as positive controls. An LC-MS/MS analytical method for determining compound concentration was established. The ratio of analyte/internal standard peak areas (Aanalyte/AIS) measured in the samples, calibrated by the dilution factor, was used as the surrogate concentration for data processing. The binding rate of the compound to melanin (Fb) is calculated by the formula: Fb = 100−(Ctest)/(Ccontrol) × 100% [formula]
Ctest is the drug concentration of the compound in the melanin incubation sample or the peak area ratio of the test compound to the internal standard. Ccontrol is the drug concentration of the compound in the blank control sample or the peak area ratio of the test compound to the internal standard. Percentage of free drug (Fu%) = 100 - Fb The binding rates of the compounds of the present invention to melanin are shown in the table below: Table 11. Binding Rate of Compounds to Melanin

In the case of `O=C(NC1CC1)c1ccccc1Sc1ccc2c(/C=C/c3cnn(CCCN4CCCC4)c3)n[nH]c2c1` [Compound I-43], the solubility – broadly, the concentration that dissolves in the medium under given conditions – at 8 h in data set [1] was found to be 71.6 µg/mL (≈ 140 µM). Further, the free fraction (fraction unbound) (commonly the share of the substance not bound to proteins or other matrix) at 2 h, 2 µM in data set [2] is 0.01 to 0.05. On to `CCN(CC)Cc1ccc(/C=C/c2n[nH]c3cc(Sc4ccccc4C(=O)NC4CC4)ccc23)nc1` [Compound I-78], for which the concentration in solution in data set [1] (solubility at 8 h) was 27.6 µg/mL (≈ 55.5 µM). In data set [2], the fraction unbound at 2 h, 2 µM is 0.01 to 0.05. Turning to `CNC(=O)c1ccccc1Sc1ccc2c(/C=C/c3cnn(CCN4CCCC4)c3)n[nH]c2c1` [Compound I-9], the solubility at 8 h in data set [1] was found to be 363 µg/mL (≈ 768 µM). Moreover, in data set [2], the fraction unbound at 2 h, 2 µM lay in the range of 0.01 to 0.05. In data set [1], `CNC(=O)c1cccc(F)c1Sc1ccc2c(/C=C/c3cnn(CCCN4CCCC4)c3)n[nH]c2c1` [Compound I-76] gave a solubility at 8 h of 1770 µg/mL (≈ 3520 µM). In data set [2], this compound came in with a free fraction (fraction unbound) at 2 h, 2 µM greater than 0.05. `CCN(CC)Cc1ccc(/C=C/c2n[nH]c3cc(Sc4ccc(F)cc4C(=O)NC)ccc23)nc1` [Compound I-93] returned a free fraction (fraction unbound) at 2 h, 2 µM in data set [2] of 0.01 to 0.05.

The compound `CN(C)CCOc1ccc(/C=C/c2n[nH]c3cc(Sc4ccccc4C(=O)NC4CC4)ccc23)nc1` [Compound I-51, N-cyclopropyl-2-({3-[(E)-2-{5-[2-(dimethylamino)ethoxy]pyridin-2-yl}ethenyl]-1H-indazol-6-yl}sulfanyl)benzamide] came in with a fraction unbound at 2 h, 2 µM in data set [2] of 0.01 to 0.05. `CNC(=O)c1ccc(F)cc1Sc1ccc2c(/C=C/c3ccc(CN4CCCC4)cn3)n[nH]c2c1` [Compound I-94] displayed a solubility at 8 h in data set [1] of 31.8 µg/mL (≈ 65.2 µM). In data set [2], this compound registered a fraction unbound at 2 h, 2 µM of 0.01 to 0.05.

Compound `CNC(=O)c1ccc(F)cc1Sc1ccc2c(/C=C/c3ccc(OCCN4CCCC4)cn3)n[nH]c2c1` [Compound I-35, 4-fluoro-N-methyl-2-({3-[(E)-2-{5-[2-(pyrrolidin-1-yl)ethoxy]pyridin-2-yl}ethenyl]-1H-indazol-6-yl}sulfanyl)benzamide] displayed a solubility at 8 h in data set [1] of 26.6 µg/mL (≈ 51.4 µM). The fraction unbound at 2 h, 2 µM in data set [2] was 0.01 to 0.05. Regarding `CNC(=O)c1cc(F)ccc1Sc1ccc2c(/C=C/c3ccc(OCCN4CCCC4)cn3)n[nH]c2c1` [Compound I-34, 5-fluoro-N-methyl-2-({3-[(E)-2-{5-[2-(pyrrolidin-1-yl)ethoxy]pyridin-2-yl}ethenyl]-1H-indazol-6-yl}sulfanyl)benzamide], in data set [1], the concentration in solution (solubility at 8 h) was 19.3 µg/mL (≈ 37.3 µM). In data set [2], this compound returned a free fraction (fraction unbound) at 2 h, 2 µM greater than 0.05. For `CCN(CC)Cc1ccc(/C=C/c2n[nH]c3cc(Sc4ccccc4C(=O)NC)ccc23)nc1` [Compound I-90] the same measures were 31.9 µg/mL (≈ 67.6 µM) and 0.01 to 0.05. Compound `O=C(NC1CC1)c1ccccc1Sc1ccc2c(/C=C/c3cnn(CCN4CCCC4)c3)n[nH]c2c1` [Compound I-61] registered a fraction unbound at 2 h, 2 µM in data set [2] of 0.01 to 0.05. Turning to `O=C(NC1CC1)c1ccccc1Sc1ccc2c(/C=C/c3cc(CN4CCCC4)ccn3)n[nH]c2c1` [Compound I-115], the fraction unbound at 2 h, 2 µM in data set [2] fell in the range of 0.01 to 0.05.

Compound `O=C(NC1CC1)c1ccccc1Sc1ccc2c(/C=C/c3ccc(CN4CCCC4)cn3)n[nH]c2c1` [Compound I-41] returned a fraction unbound at 2 h, 2 µM in data set [2] greater than 0.05.

In the case of `CNC(=O)c1ccccc1Sc1ccc2c(/C=C/c3ccnc(OCCN4CCCC4)c3)n[nH]c2c1` [Compound I-18], the fraction unbound at 2 h, 2 µM in data set [2] lay within 0.01 to 0.05. In data set [2], `CCNC(=O)c1ccccc1Sc1ccc2c(/C=C/c3ccc(CN4CCCC4)cn3)n[nH]c2c1` [Compound I-73, N-ethyl-2-({3-[(E)-2-{5-[(pyrrolidin-1-yl)methyl]pyridin-2-yl}ethenyl]-1H-indazol-6-yl}thio)benzamide] gave a free fraction (fraction unbound) at 2 h, 2 µM of 0.01 to 0.05. Still for that read-out and setting: in the case of `O=C(NC1CC1)c1ccccc1Sc1ccc2c(/C=C/c3ccc(OCCN4CCCCC4)cn3)n[nH]c2c1` [Compound I-53] it was greater than 0.05; in that of `CNC(=O)c1ccccc1Sc1ccc2c(/C=C/c3ccc(CCN4CCCC4)cn3)n[nH]c2c1` [Compound I-107], 0.01 to 0.05. In data set [2], `CCN(CC)CCOc1ccc(/C=C/c2n[nH]c3cc(Sc4ccccc4C(=O)NC4CC4)ccc23)nc1` [Compound I-52] came in with a fraction unbound at 2 h, 2 µM greater than 0.05.
